Experimental data as given in PubChem BioAssay (NCI).
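48-hour exposure; five concentrations; linearly interpolated endpoints. Abbreviation: GI50, concentration required for 50% inhibition of growth. TGI: total growth inhibition.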

Legend:
Test in all cases: inhibition of tumour cell growth, NCI panel, 48 h
[1] = system: SNB-19 CNS
[2] = system: HL-60(TB) leukemia
[3] = system: HOP-92 NSCLC
[4] = system: COLO 205 colon
[5] = system: UO-31 renal
[6] = system: KM20L2 colon
[7] = system: RPMI-8226 leukemia
[8] = system: ACHN renal
[9] = system: IGROV1 ovarian
[10] = system: SR leukemia

SMILES	TGI [1]	TGI [2]	TGI [3]	TGI [4]	TGI [5]	TGI [6]	TGI [7]	TGI [8]	TGI [9]	TGI [10]	GI50 [2]	GI50 [3]	GI50 [4]	GI50 [5]	GI50 [6]	GI50 [7]	GI50 [8]	GI50 [9]	GI50 [1]	GI50 [10]
CCOC(=O)c1cc2c3c(c(O)c(OC)c2s1)N(C(=O)c1cc2c4c(c(O)c(OC)c2s1)N(C(C)=O)CC4)CC3	> 100 µM	> 100 µM	> 100 µM	> 100 µM	> 100 µM	> 100 µM	> 100 µM	> 100 µM	> 100 µM	–	–	–	–	–	–	–	–	–	–	–
Cc1c(C(=O)O)oc2ccc([N+](=O)[O-])cc12	> 100 µM	> 100 µM	> 100 µM	> 100 µM	> 100 µM	> 100 µM	–	> 100 µM	> 100 µM	–	–	–	–	–	–	–	–	–	–	–
COc1cc2c(cc1OC)C(C(=O)c1cccc(OC)c1OC)C(=O)N(C)CC2 (stereo not drawn)	> 100 µM	> 100 µM	> 100 µM	> 100 µM	> 100 µM	> 100 µM	> 100 µM	> 100 µM	> 100 µM	–	–	–	–	–	–	–	–	–	–	–
Cc1c2ccccc2cc2ccc3oc([N+](=O)[O-])cc3c12	> 100 µM	> 100 µM	> 100 µM	> 100 µM	> 100 µM	> 100 µM	> 100 µM	> 100 µM	> 100 µM	–	–	–	–	–	–	–	–	–	–	–
CC(C)(Oc1ccc(/C=C/C(=O)c2ccc(Cl)cc2)cc1)C(=O)Nc1c(Cl)cccc1Cl	> 100 µM	–	91.5 µM	40.2 µM	54.2 µM	46.1 µM	–	53 µM	76.3 µM	> 100 µM	–	–	–	–	–	–	–	–	–	–
O=C(O)c1ccc(C2C(=O)N[C@@H]3CCC[C@H]23)cc1 (stereo partly drawn)	> 100 µM	> 100 µM	–	> 100 µM	> 100 µM	> 100 µM	> 100 µM	–	> 100 µM	–	–	–	–	–	–	–	–	–	–	–
C[N+](C)(C)CC1CCCCC1O (stereo not drawn)	–	–	> 100 µM	> 100 µM	> 100 µM	> 100 µM	> 100 µM	> 100 µM	> 100 µM	> 100 µM	–	–	–	–	–	–	–	–	–	–
NC(=S)NN/C=C(\C=Nc1ccccc1)[N+](=O)[O-]	> 100 µM	> 100 µM	> 100 µM	> 100 µM	–	> 100 µM	> 100 µM	> 100 µM	> 100 µM	–	–	–	–	–	–	–	–	–	–	–
Cc1nc(C(N)=S)sc1C(=O)/C=C/c1c(O)ccc2ccccc12	> 100 µM	65.3 µM	> 100 µM	> 100 µM	> 100 µM	> 100 µM	> 93.5 µM	> 100 µM	> 100 µM	–	–	–	–	–	–	–	–	–	–	–
COC(=O)C1(C(=O)OC)CC(=O)c2cc3c(cc2-c2c(cc(OC)c(OC)c2OC)C1)OCO3	> 211 µM	> 211 µM	167 µM	> 211 µM	–	> 211 µM	–	> 211 µM	> 211 µM	> 211 µM	–	–	–	–	–	–	–	–	–	–
CN(C)C(=S)/N=c1\ssc(=S)n1Cc1ccncc1	> 100 µM	–	–	> 100 µM	88.5 µM	> 100 µM	–	93.1 µM	63.3 µM	45.4 µM	–	–	–	–	–	–	–	–	–	–
CC(C)(C)C(=O)[CH-]C(=O)C(C)(C)C.CC(C)(C)C(=O)[CH-]C(=O)C(C)(C)C.CN(C)c1ccc([O-])cc1.CN(C)c1ccc([O-])cc1.[Ti+4]	–	> 100 µM	> 100 µM	> 100 µM	> 100 µM	> 100 µM	> 100 µM	> 100 µM	> 100 µM	–	> 100 µM	72 µM	> 100 µM	> 100 µM	> 100 µM	52.7 µM	> 100 µM	> 100 µM	–	–
C/C(=N/NC(=O)C[N+](C)(C)C)C(CN(C)C)C(=O)Nc1ccccc1 (stereo not drawn)	> 100 µM	> 100 µM	–	> 100 µM	> 100 µM	> 100 µM	–	> 100 µM	> 100 µM	> 100 µM	–	–	–	–	–	–	–	–	–	–
Cn1c2c(c3ccccc31)CCN(CCN1CCN(c3cccc(Cl)c3)CC1)C2=O	–	65.3 µM	77.1 µM	> 100 µM	> 100 µM	> 100 µM	> 100 µM	> 100 µM	> 100 µM	–	–	–	–	–	–	–	–	–	–	–
Nc1ccc(/C=C/C(=O)NCc2cc3cc(-c4ccc(C(=O)N5CCC(F)(F)CC5)cc4)cc(-c4ccc(F)cc4)c3o2)cn1	> 100 µM	> 100 µM	> 100 µM	> 62.9 µM	> 100 µM	–	> 100 µM	> 100 µM	> 100 µM	> 100 µM	5.61 µM	28.3 µM	0.327 µM	> 47.6 µM	–	0.563 µM	83.9 µM	> 44.7 µM	3.96 µM	12.9 µM
O=S(=O)(NCCCNc1nccc(-c2c(-c3ccc(F)cc3)nc3sccn23)n1)c1ccc2ccccc2c1	> 100 µM	> 100 µM	> 100 µM	4.81 µM	> 100 µM	–	> 100 µM	> 100 µM	> 100 µM	> 100 µM	4.25 µM	6.36 µM	2.22 µM	3.58 µM	–	4.05 µM	3.42 µM	5.37 µM	8.53 µM	4.01 µM
